Columns and labels:
Assay in all cases: spectrophotometric GST assay, steady state
Assay type in all cases: biochemical
Conditions in all cases: co-substrate GSH; pH and temperature not given; read-out: K m ^CDNB
LmGSTS9 = biological target: T1, LmGSTS9 (Locusta migratoria, UniProt V9Q315)
T1 construct: gene GSTs9; full-length ORF in pET28a, E. coli BL21(DE3), His-tag Ni-NTA purified
Description: spectrophotometric GST assay, steady state on LmGSTS9

LmGSTS5 = biological target: T2, LmGSTS5 (Locusta migratoria, UniProt F4YUJ4)
T2 construct: full-length ORF in pET28a, E. coli BL21(DE3), His-tag Ni-NTA purified
T2 sequence (F4YUJ4 1-202): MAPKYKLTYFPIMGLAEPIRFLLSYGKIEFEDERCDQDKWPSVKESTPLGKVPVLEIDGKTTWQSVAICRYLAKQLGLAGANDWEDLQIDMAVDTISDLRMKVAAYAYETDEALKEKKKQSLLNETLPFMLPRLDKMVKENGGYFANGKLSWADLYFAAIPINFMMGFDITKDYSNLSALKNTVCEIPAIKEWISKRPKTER
Description: spectrophotometric GST assay, steady state on LmGSTS5

LmGSTE1 = biological target: T3, LmGSTE1 (Locusta migratoria, UniProt V9Q4G7)
T3 construct: gene GSTe1; full-length ORF in pET28a, E. coli BL21(DE3), His-tag Ni-NTA purified
T3 sequence (V9Q4G7 1-222): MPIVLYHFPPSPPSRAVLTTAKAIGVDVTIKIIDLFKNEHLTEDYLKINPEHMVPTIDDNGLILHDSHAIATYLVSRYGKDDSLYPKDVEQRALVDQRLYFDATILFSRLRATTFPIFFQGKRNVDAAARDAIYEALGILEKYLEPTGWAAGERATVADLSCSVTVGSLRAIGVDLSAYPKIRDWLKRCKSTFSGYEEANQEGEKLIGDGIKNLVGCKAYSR
Description: spectrophotometric GST assay, steady state on LmGSTE1

LmGSTO1 = biological target: T4, LmGSTO1 (Locusta migratoria, UniProt V9Q3Y6)
T4 construct: gene GSTo1; full-length ORF in pET28a, E. coli BL21(DE3), His-tag Ni-NTA purified
T4 sequence (V9Q3Y6 1-242): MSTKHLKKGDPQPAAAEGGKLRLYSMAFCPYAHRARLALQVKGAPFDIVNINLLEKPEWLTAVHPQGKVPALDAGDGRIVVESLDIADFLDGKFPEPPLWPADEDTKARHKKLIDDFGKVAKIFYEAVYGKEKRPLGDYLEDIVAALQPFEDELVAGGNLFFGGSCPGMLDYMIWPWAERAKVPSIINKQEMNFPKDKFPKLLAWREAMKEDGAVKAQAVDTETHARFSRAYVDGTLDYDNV
Description: spectrophotometric GST assay, steady state on LmGSTO1

LmGSTD2 = biological target: T5, LmGSTD2 (Locusta migratoria, UniProt V9Q3Y3)
T5 construct: gene GSTd2; full-length ORF in pET28a, E. coli BL21(DE3), His-tag Ni-NTA purified
T5 sequence (V9Q3Y3 1-214): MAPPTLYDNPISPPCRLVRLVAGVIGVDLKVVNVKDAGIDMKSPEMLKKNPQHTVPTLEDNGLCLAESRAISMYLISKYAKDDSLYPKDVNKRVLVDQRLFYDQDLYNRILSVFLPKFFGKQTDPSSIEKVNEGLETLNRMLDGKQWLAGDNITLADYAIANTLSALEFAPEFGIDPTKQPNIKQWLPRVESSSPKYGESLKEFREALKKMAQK
Description: spectrophotometric GST assay, steady state on LmGSTD2

LmGSTD7 = biological target: T6, LmGSTD7 (Locusta migratoria, UniProt V9Q328)
T6 construct: gene GSTd7; full-length ORF in pET28a, E. coli BL21(DE3), His-tag Ni-NTA purified
T6 sequence (V9Q328 1-233): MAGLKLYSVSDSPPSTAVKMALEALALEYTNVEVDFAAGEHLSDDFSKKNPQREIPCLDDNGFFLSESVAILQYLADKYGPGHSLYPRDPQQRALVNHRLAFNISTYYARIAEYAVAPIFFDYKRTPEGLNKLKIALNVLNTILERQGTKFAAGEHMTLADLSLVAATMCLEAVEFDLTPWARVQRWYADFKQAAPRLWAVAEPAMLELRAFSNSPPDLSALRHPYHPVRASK
Description: spectrophotometric GST assay, steady state on LmGSTD7

LmGSTD4 = biological target: T7, LmGSTD4 (Locusta migratoria, UniProt V9Q2Q3)
T7 construct: gene GSTd4; full-length ORF in pET28a, E. coli BL21(DE3), His-tag Ni-NTA purified
T7 sequence (V9Q2Q3 1-218): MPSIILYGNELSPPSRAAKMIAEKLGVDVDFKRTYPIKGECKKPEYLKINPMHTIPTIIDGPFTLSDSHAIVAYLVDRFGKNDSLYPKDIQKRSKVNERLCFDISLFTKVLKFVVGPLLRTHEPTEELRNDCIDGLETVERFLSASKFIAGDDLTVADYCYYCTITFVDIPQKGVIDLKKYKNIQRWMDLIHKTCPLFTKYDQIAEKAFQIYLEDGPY
Description: spectrophotometric GST assay, steady state on LmGSTD4

LmGSTD1 = biological target: T8, LmGSTD1 (Locusta migratoria, UniProt E7BTM5)
T8 construct: full-length ORF in pET28a, E. coli BL21(DE3), His-tag Ni-NTA purified
T8 sequence (E7BTM5 1-218): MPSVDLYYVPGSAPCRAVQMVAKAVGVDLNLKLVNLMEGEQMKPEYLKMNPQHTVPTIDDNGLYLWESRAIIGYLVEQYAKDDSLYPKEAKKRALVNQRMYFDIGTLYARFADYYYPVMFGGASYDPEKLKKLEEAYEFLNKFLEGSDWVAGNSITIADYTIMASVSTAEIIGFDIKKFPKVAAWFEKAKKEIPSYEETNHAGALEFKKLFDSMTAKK
Description: spectrophotometric GST assay, steady state on LmGSTD1

LmGSTD3 = biological target: T9, LmGSTD3 (Locusta migratoria, UniProt V9Q4H6)
T9 construct: gene GSTd3; full-length ORF in pET28a, E. coli BL21(DE3), His-tag Ni-NTA purified
T9 sequence (V9Q4H6 1-222): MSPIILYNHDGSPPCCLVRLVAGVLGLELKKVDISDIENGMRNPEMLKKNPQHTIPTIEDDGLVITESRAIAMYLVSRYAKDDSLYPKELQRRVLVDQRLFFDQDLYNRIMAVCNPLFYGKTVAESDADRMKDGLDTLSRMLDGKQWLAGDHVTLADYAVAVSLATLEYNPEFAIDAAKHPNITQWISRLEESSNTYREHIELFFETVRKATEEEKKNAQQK
Description: spectrophotometric GST assay, steady state on LmGSTD3

T1 sequence (V9Q315 1-204): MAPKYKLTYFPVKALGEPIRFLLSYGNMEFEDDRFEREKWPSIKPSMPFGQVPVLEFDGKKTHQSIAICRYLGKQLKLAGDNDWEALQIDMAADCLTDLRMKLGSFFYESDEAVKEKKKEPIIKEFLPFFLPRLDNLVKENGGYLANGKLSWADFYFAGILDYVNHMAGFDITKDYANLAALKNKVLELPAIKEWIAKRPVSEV

Question: `O=[N+]([O-])c1ccc(Cl)c([N+](=O)[O-])c1` [CDNB] was tested. Which Km (LmGSTS9) did it give?
Answer: Its Km is 351 ± 26 µM.

Question: And the Km (LmGSTS5)?
Answer: The Km was 253 ± 26 µM.

Question: What about the Km (LmGSTE1) of the same compound?
Answer: The Km was 7 ± 1 µM.

Question: And the Km (LmGSTO1)?
Answer: The Km was 228 ± 45 µM.

Question: And the Km (LmGSTD2)?
Answer: Its Km is 923 ± 49 µM.

Question: And the Km (LmGSTD7)?
Answer: The Km was 492 ± 39 µM.

Question: And the Km (LmGSTD4)?
Answer: The Km was 15 ± 2 µM.

Question: What about the Km (LmGSTD1) of the same compound?
Answer: The Km was 139 ± 8 µM.

Question: What about the Km (LmGSTD3) of the same compound?
Answer: Its Km is 102 ± 10 µM.
